Measured values reported in ChEMBL document CHEMBL1944525, “Synthesis and activity of folate conjugated didemnin B for potential treatment of inflammatory diseases” (Bioorg Med Chem Lett, 2012).

How the values were obtained:
RAW264.7 [1] = assay: Cytotoxicity against mouse RAW264.7 cells incubated for 5 hrs followed by replacement with fresh media measured after 72 hrs by XTT assay; format: functional, cell-based
RAW264.7 [2] = assay: Antiinflammatory activity in mouse RAW264.7 cells assessed as inhibition of LPS-induced TNFalpha production after 72 hrs […]; format: functional, cell-based; conditions: RAW264.7, 72 h
RAW264.7 [3] = assay: Displacement of [3H]-folic acid from folate receptor on mouse RAW264.7 cells assessed as relative binding after 1 hr by liquid scintillation counting; format: cell-based

In the case of `CC[C@H](C)[C@H]1NC(=O)[C@@H](NC(=O)[C@@H](CC(C)C)N(C)C(=O)[C@H]2CCCN2C(=O)C(C)OC(=O)OCCSSC[C@H](NC(=O)[C@H](CC(=O)O)NC(=O)[C@H](CC(=O)O)NC(=O)[C@H](CCCNC(=N)N)NC(=O)[C@H](CC(=O)O)NC(=O)CC[C@H](NC(=O)c2ccc(NCc3cnc4nc(N)[nH]c(=O)c4n3)cc2)C(=O)O)C(=O)O)[C@@H](C)OC(=O)[C@H](Cc2ccc(OC)cc2)N(C)C(=O)[C@@H]2CCCN2C(=O)[C@H](CC(C)C)NC(=O)[C@@H](C)C(=O)[C@H](C(C)C)OC(=O)C[C@@H]1O` (some centres undefined) [FOLATE DIDEMNIN B], the Activity (RAW264.7 [1]) is reported as “Dose-dependent effect”, the IC50 (RAW264.7 [1]) is reported as 13 nM and the IC50 (RAW264.7 [2]) is reported as 5 nM. For the same compound, the relative binding affinity (RBA) (RAW264.7 [3]) was 0.18.
